One assay addresses enzyme from E. coli (Escherichia coli, UniProt P13035). The following applies: cited from earlier work.
The target of assay [1] is T1, NAD-independent α-glycerol-3-phosphate dehydrogenase (Priestia megaterium, UniProt D5DYU7).
T1 sequence (D5DYU7 1-559): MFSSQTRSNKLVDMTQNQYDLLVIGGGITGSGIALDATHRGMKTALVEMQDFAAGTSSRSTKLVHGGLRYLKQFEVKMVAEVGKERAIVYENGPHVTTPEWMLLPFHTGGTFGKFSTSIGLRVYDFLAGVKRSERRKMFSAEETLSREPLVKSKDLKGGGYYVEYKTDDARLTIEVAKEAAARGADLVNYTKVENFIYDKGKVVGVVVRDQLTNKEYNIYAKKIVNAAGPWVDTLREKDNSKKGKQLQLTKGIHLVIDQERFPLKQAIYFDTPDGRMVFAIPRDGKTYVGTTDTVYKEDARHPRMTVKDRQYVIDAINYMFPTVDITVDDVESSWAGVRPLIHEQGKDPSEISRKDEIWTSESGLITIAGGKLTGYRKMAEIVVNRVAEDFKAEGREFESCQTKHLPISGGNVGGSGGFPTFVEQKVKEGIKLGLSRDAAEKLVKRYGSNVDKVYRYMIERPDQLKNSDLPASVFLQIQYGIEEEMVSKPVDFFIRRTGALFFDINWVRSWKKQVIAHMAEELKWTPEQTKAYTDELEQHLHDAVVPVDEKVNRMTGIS
As to the kind of experiment: α-glycerol-3-phosphate dehydrogenase activity assay (rate of INT reduction, absorbance at 505nm, 37°C). The following applies: concentration of inhibitor bringing about 50% inhibition. In kind it is biochemical, B. megaterium. How it is done: Aliquots of the resulting cell-free extract and other samples containing partially purified α-glycerol-3-phosphate dehydrogenase were used in the following assay test system:
The rate of change of absorbance was measured at 505nm, 37°C in a spectrophotometer. According to such test, the specific activity of the purified enzyme (from gel filtration chromatography) was 1.0 unit/mg protein; a unit is number of µmoles of INT reduced per min.

Sequence of enzyme from E. coli (P13035 whole entry): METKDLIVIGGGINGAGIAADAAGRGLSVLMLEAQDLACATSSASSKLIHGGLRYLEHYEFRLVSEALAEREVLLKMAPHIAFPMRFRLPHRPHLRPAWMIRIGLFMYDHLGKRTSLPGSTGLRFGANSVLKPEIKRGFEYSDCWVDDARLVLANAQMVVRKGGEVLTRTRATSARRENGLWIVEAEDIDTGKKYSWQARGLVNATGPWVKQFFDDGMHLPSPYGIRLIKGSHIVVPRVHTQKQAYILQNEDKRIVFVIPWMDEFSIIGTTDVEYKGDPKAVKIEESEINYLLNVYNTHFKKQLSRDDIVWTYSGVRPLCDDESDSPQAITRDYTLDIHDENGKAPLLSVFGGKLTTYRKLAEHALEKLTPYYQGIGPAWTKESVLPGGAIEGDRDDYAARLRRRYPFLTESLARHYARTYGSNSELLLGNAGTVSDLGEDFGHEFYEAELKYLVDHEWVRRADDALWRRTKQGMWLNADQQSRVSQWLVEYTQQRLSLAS

`O=P(O)(O)OC[C@H](O)CO` [L-α-glycerol-3-phosphate]: on enzyme from E. coli, the Michaelis-Menten constant (Km) is 400 µM.

For the compound ammonium sulphate, the “50% inhibition of enzyme activity (concentration)” value in assay [1] was 1%.
